Experimental data reported in BindingDB's records for doi:10.1016/j.bmc.2007.10.061 (Osi Pharmaceuticals, 2008).
pIC50: −log10 of the molar value.

Tests used:
[1] = biological target: 3-phosphoinositide-dependent protein kinase 1 (PDPK1) (Homo sapiens) (UniProt O15530); experiment: Inhibition of PDK1
[2] = biological target: Mitogen-activated protein kinase 1 (ERK2) (Homo sapiens) (UniProt P28482); experiment: Inhibition of MAPK2
Mitogen-activated protein kinase 1 (ERK2) (Homo sapiens), sequence (P28482 whole entry, looked up): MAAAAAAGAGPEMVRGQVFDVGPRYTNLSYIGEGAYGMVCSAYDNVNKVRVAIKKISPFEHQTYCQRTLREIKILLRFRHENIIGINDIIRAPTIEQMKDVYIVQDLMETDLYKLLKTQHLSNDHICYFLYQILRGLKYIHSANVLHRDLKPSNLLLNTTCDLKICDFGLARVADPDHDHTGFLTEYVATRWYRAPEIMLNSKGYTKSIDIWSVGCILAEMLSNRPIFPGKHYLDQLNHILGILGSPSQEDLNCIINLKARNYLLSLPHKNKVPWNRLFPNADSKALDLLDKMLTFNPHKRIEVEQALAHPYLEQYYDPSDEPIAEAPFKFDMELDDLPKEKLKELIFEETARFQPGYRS

For `Nc1nccn2c1c(-c1ccc3ccc(-c4ccccc4)nc3c1)nc2[C@H]1C[C@@H](CN2CCC2)C1` [cis-3-(3-(azetidin-1-ylmethyl)cyclobutyl)-1-(2-phenylquinolin-7-yl)imidazo[1,5-a]pyrazin-8-amine], the pIC50 [1] was < 4.52 and the pIC50 [2] was < 5.00.
